We go through ten compounds from paper PMC12061832, “Exploring novel dilazep derivatives as hENT1 inhibitors and potentially covalent molecular tools” (Purinergic Signalling, 2024).

“And” between values parts separate entries of the source, which are not always exact repeats. Equal values may be shown once.

For one assay, the target named is T1, hENT1 (Homo sapiens, UniProt Q99808).
T1 construct: performed on erythrocyte cell membranes endogenously expressing the transporter; tissue Sanquin Bloedvoorziening, Amsterdam, The Netherlands; host or cells: erythrocyte membranes (endogenous expression)
T1 sequence (Q99808 1-456): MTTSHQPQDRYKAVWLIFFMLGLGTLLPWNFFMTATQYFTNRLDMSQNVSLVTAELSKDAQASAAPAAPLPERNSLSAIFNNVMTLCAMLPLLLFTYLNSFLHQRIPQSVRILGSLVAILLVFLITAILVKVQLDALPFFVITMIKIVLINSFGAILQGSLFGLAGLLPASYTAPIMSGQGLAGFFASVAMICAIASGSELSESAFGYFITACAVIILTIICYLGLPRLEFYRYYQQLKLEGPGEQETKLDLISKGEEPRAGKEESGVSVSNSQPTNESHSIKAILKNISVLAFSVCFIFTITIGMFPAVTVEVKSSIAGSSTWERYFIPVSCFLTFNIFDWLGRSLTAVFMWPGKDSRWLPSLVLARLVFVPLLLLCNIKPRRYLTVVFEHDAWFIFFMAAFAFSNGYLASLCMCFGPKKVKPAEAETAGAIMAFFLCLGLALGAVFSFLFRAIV
As to the kind of experiment: [3H]NBTI displacement assay on erythrocyte membranes. Type of assay: binding. To be noted: 1 µM inhibitor; [3H]NBTI displacement; mean (individual values) of two experiments. As to the method:
Dilazep and ST7092 were obtained from ASTA-Werke AG (Bielefeld, Germany) and Chemie Linz AG (Linz, Austria), respectively. Radioligand displacement assays were performed as previously described. In brief, the experiments were performed on erythrocyte membranes (Sanquin Bloedvoorziening, Amsterdam, The Netherlands) using a single concentration of 1 µM or multiple concentrations (ranging from 10^–10 to 10^–6) of unlabeled inhibitors in the presence of 4 nM [^3H]NBTI at 10 °C for 1 h in assay buffer (50 mM Tris–HCl, pH 7.4, 0.1% w/v CHAPS). Non-specific binding (NSB) was assessed with 10 µM unlabeled NBTI. […] Subsequently, [^3H]NBTI was added to the preincubated and control samples (containing erythrocyte membranes, unlabeled inhibitor and radioligand) and both types of samples were incubated for another hour. Incubation was terminated by rapid vacuum filtration over Whatman™ UniFilter™ 96-well GF/C microplates using a FilterMate™ Universal Harvester (PerkinElmer, Groningen, The Netherlands). Subsequently, the plates were washed ten times with ice-cold wash buffer (50 mM Tris–HCl, pH 7.4). Thereafter, the filters were dried for 45 min at 55 °C and 25 µL of Microscint (PerkinElmer) was added per well. The filter-bound radioactivity was determined by scintillation spectrometry using a MicroBeta^2 2450 Microplate Counter (PerkinElmer).
For data analysis, dilazep and ST7092 were used as positive controls. All experimental data was analyzed using GraphPad Prism 10.0.2 software (GraphPad Software Inc., San Diego, CA, USA). [^3H]NBTI assays were baseline-corrected with NSB and normalized to this value (0%) and TB (100%). The radioligand displacement curves were fitted to a one-site binding model by nonlinear regression from which the pIC50 values were obtained. […] Data shown represent the mean ± SD of at least two or mean ± SEM of at least three individual experiments each performed in duplicate.
To determine the affinities of the non-covalent hENT1 inhibitors, a [^3H]NBTI displacement assay was performed on erythrocyte cell membranes endogenously expressing the transporter. All compounds were initially screened at a concentration of 1 µM to provide the percentage displacement. If more than 75% displacement was observed, compounds were subsequently characterized in full concentration-effect curves to determine their affinity.
`COc1ccccc1C(=O)OCCCN1CCN(CCCOC(=O)c2ccccc2OC)CC1` [Compound 6p, piperazine-1,4-diylbis(propane-3,1-diyl) bis(2-methoxybenzoate)]: the “% displacement at 1 μM” value is 7 (15, -1) %. As to `COc1cccc(C(=O)OCCCN2CCN(CCCOC(=O)c3cccc(OC)c3)CC2)c1` [Compound 6q, piperazine-1,4-diylbis(propane-3,1-diyl) bis(3-methoxybenzoate)], the “% displacement at 1 μM” value is reported as 8 (11, 4) %. On the same count and under the same terms, to `COc1ccc(C(=O)OCCCN2CCN(CCCOC(=O)c3ccc(OC)cc3)CC2)cc1` [Compound 6r, piperazine-1,4-diylbis(propane-3,1-diyl) bis(4-methoxybenzoate)] belongs -8 (-5, -11) %. Take `COc1ccc(C(=O)OCCCN2CCN(CCCOC(=O)c3ccc(OC)c(OC)c3)CC2)cc1OC` [Compound 6s, piperazine-1,4-diylbis(propane-3,1-diyl) bis(3,4-dimethoxybenzoate)]: the “% displacement at 1 μM” value is “around 30% and 27 (33, 21) %”. `COc1cc(OC)cc(C(=O)OCCCN2CCN(CCCOC(=O)c3cc(OC)cc(OC)c3)CC2)c1` [Compound 6t, piperazine-1,4-diylbis(propane-3,1-diyl) bis(3,5-dimethoxybenzoate)]: the “% displacement at 1 μM” value was “little to no displacement and 8 (12, 4) %”. On to `COc1ccc(C(=O)OCCCN2CCN(CCCOC(=O)c3ccccc3OC)CC2)cc1OC` [Compound 6u, 3-(4-(3-((2-methoxybenzoyl)oxy)propyl)piperazin-1-yl)propyl 3,4-dimethoxybenzoate], for which the “% displacement at 1 μM” value is “little to no displacement and 12 (16, 9) %”.

With `COc1cc(OC)cc(C(=O)OCCCN2CCN(CCCOC(=O)c3ccc(OC)c(OC)c3)CC2)c1` [Compound 6v, 3-(4-(3-((3,5-dimethoxybenzoyl)oxy)propyl)piperazin-1-yl)propyl 3,4-dimethoxybenzoate], the “% displacement at 1 μM” value was “around 30% and 34 (42, 26) %”.

The assay is the same for the next values; noted with them: compared to ST7092.
Take `COc1ccc(C(=O)OCCCN2CCN(CCCOC(=O)c3cc(OC)c(OC)c(OC)c3)CC2)cc1OC` [Compound 6n, 3-(4-(3-((3,4-dimethoxybenzoyl)oxy)propyl)piperazin-1-yl)propyl 3,4,5-trimethoxybenzoate]: the “decrease in affinity compared to ST7092” value is 80 fold. Same read-out and setting: the same measure for `COc1cc(OC)cc(C(=O)OCCCN2CCN(CCCOC(=O)c3cc(OC)c(OC)c(OC)c3)CC2)c1` [Compound 6o, 3-(4-(3-((3,5-dimethoxybenzoyl)oxy)propyl)piperazin-1-yl)propyl 3,4,5-trimethoxybenzoate]: 80 fold.

Staying with this assay, now noted: erythrocyte membranes, 4 nM [3H]NBTI, 10 °C, 1 h.
By Ki is commonly meant a dissociation constant, usually derived from enzyme kinetics or from competition with a known ligand. With `COc1ccc(C(=O)OCCCN2CCN(CCCOC(=O)c3cc(OC)c(OC)c(OC)c3)CC2)cc1OC` [Compound 6n, 3-(4-(3-((3,4-dimethoxybenzoyl)oxy)propyl)piperazin-1-yl)propyl 3,4,5-trimethoxybenzoate], the Ki was 0.136 µM.

`COc1cc(OC)cc(C(=O)OCCCN2CCN(CCCOC(=O)c3cc(OC)c(OC)c(OC)c3)CC2)c1` [Compound 6o, 3-(4-(3-((3,5-dimethoxybenzoyl)oxy)propyl)piperazin-1-yl)propyl 3,4,5-trimethoxybenzoate] had a Ki of 0.146 µM. Still for that read-out and setting: the same measure for `COc1cc(C(=O)OCCCN2CCN(CCCOC(=O)c3cc(OC)c(OC)c(OC)c3)CC2)cc(OC)c1OC` [ST7092, reference compound]: 0.00179 µM.
